Data published in patent publication US10913757B2, “Hydroxycinnamic derivatives, methods and uses thereof” (UNIVERSIDADE DO PORTO, priority 2016, dated 2021).
Entries after “also recorded” stand apart in the source; their conditions may differ.

Legend:
[1] = Iron (II) chelating properties, ferrozine assay; type: biochemical; details: 100 μM, EDTA=100%
Description: In an embodiment, AntiOxCINs iron (II) chelating properties were evaluated by the ferrozine assay using ethylenediaminetetracetic acid (EDTA) as reference.
In an embodiment, AntiOxCINs iron chelating properties were evaluated by the spectrophotometric ferrozine method performed in a multiplate reader (Powerwave XS Microplate Reader) of Bio-Tech instruments.
In an embodiment, the AntiOxCINs iron chelating properties were evaluated as follows: in each well, a solution of the test compound (100 μM) and ammonium iron (II) sulphate in ammonium acetate (20 μM) were added, incubated for 10 min and the absorbance was read at 562 nm. Then, a freshly prepared solution of ferrozine (5 mM) was added to each well (96 μM final concentration). After a new incubation at 37° C. for 10 min period, the absorbance of [Fe(ferrozine)3]^2+ complex was measured at 562 nm. Blank wells were run using DMSO instead of the test compounds. EDTA was used as a reference. All compounds were tested at a final concentration of 100 μM. The absorbance of the first reading was subtracted to the final values to abolish any absorbance due to the test compounds. Data are means±SEM of three independent experiments and are expressed as % of Fe(II) chelation (EDTA=100%).

[2] = tested on: HepG2 cells; assay: Morphological alterations in HepG2 cells, vital epifluorescence microscopy (TMRM, Hoechst 33342); type: cell-based, human; details: HepG2, 48 h; AntiOxCIN4 100 μM, AntiOxCIN6 2.5 μM, FIG. 8C; methanesulfonate
Description: In an embodiment, as an example, the morphological changes in mitochondrial network and nuclei chromatin condensation of AntiOxCIN4 and AntiOxCIN6 have been determined. HepG2 cells were treated with AntiOxCINs for 48 h and then incubated with the mitochondrialΔΨ-dependent fluorescent probes TMRM and DNA dye Hoechst 33342.
In an embodiment, the detection of morphological alterations, including chromatin condensation and mitochondrial polarization and distribution by vital epifluorescence microscopy was performed as follows: cells were placed in 6-well plates with a glass coverslip per well (8×10^4 cells/2 mL) and then treated with non-toxic concentrations of AntiOxCIN4 or AntiOxCIN6 for 48 hours. Thirty minutes prior the end of the incubation time, the mitochondrial network was stained with TMRM (100 nM) while nuclei were stained with Hoechst 33342 (1 μg/mL), to detect apoptotic chromatin condensation, in HBSS (NaCl 137 mM, KCl 5.4 mM, NaHCO3 4.2 mM, Na2HPO4 0.3 mM, KH2PO4 0.4 mM, CaCl2 1.3 mM, MgCl2 0.5 mM, MgSO4 0.6 mM, and D-glucose 5.6 mM, pH 7.4) at 37° C. under dark conditions. Glass coverslips were removed from the wells and placed on glass slides with a drop of mounting medium. The cell images were acquired using a Zeiss LSM 510Meta microscope and analysed with ImageJ software 1.49v. […]

[3] = tested on: HepG2 cells; assay: Cytotoxicity screening in HepG2 cells, SRB assay; type: cell-based, human; details: HepG2, 48 hour
Description: In an embodiment, and as an example, the cytotoxicity of two AntiOxCINs (AntiOxCIN4 and AntiOxCIN6) was assessed using monolayer cultures of human hepatocytes from hepatocellular carcinoma (HepG2) and SRB method (FIG. 8A). […] Remarkably, at concentrations higher than 2.5 μM AntiOxCIN6 inhibited cell proliferation, while at concentrations higher than 100 μM AntiOxCIN4 stimulated cell proliferation.
(§1) In an embodiment, the cytotoxicity profile of AntiOxCIN4 and AntiOxCIN6 was evaluated in human hepatocellular carcinoma HepG2 cells. Human hepatocellular carcinoma HepG2 cells were cultured in high-glucose medium composed by Dulbecco's modified Eagle's medium (DMEM; D5648) supplemented with sodium pyruvate (0.11 g/L), sodium bicarbonate (1.8 g/L) and 10% fetal bovine serum (FBS) and 1% of antibiotic penicillin-streptomycin 100× solution. Cells were maintained at 37° C. in a humidified incubator with 5% CO2. HepG2 cells were seeded at density of 4×10^4 cells/mL and grown for 24 hours before treatment.
In an embodiment the cytotoxicity screening was performed as follows: cells were placed on 48-well plate (2×10^4 cells/500 μL) and then were incubated during 48 hour with AntiOxCIN4 and AntiOxCIN6 concentrations ranging 25 μM to 500 μM or 0.5 μM to 25 μM, respectively. After incubation, sulforhodamine B (SRB) assay was used for cell density determination based on the measurement of cellular protein content. Briefly, after incubation, the medium was removed and wells rinsed with PBS (1×). Cells were fixed by adding 1% acetic acid in 100% methanol for at least 2 hours at −20° C. Later, the fixation solution was discarded and the plates were dried in an oven at 37° C. […] Finally, 200 μl of each supernatant was transferred in 96-well plates and optical density was measured at 540 nm. Data are means±SEM of four independent experiments and the results are expressed as percentage of control (control=100%), which represents the cell density without any treatment in the respective time point.

[4] = tested on: HepG2 cells; assay: Cellular antioxidant screening in HepG2 cells (FeSO4 or H2O2), SRB assay; type: cell-based, human; details: pre-incubated 1 hour, AntiOxCIN4 100 μM, AntiOxCIN6 2.5 μM; for prevention of iron-induced HepG2 cytotoxicity (cell proliferation): 250 μM FeSO4 48 h; for prevention of hydrogen peroxide-induced HepG2 cytotoxicity (cell proliferation): 250 μM H2O2 48 h
Description: In an embodiment, as an example, the antioxidant cellular outline of AntiOxCIN4 and AntiOxCIN6 was assessed using monolayer cultures of human hepatocytes from hepatocellular carcinoma (HepG2) and two different oxidative stressors (250 μM FeSO4 or 250 μM H2O2) (FIG. 8B). […] The higher efficacy of AntiOxCIN4 is in agreement with the data attained from TAC assays (Table 1) and RLM assays (FIG. 4).
as §1
In an embodiment, the cellular antioxidant screening was performed as follows: cells were placed on 48-well plate (2×10^4 cells/500 μL) and pre-incubated with non-toxic concentrations of AntiOxCIN4 (100 μM) or AntiOxCIN6 (2.5 μM) for 1 hour. After the incubation time, cells were exposed to oxidative stress conditions by the addition of 250 μM FeSO4 or 250 μM H2O2 for 48 hours. At the end of incubation time, SRB assay was used for cell density determination as previously described. Data are means±SEM of four independent experiments. The results are expressed as percentage of control (control=100%), which represents the cell density without any treatment in the respective time point.

Structure (SMILES)	iron (II) chelation ([1]; FIG. 2)	nuclear morphology and mitochondrial polarization [2]	concentration above which cell proliferation was stimulated ([3]; FIG. 8A)	prevention of iron-induced HepG2 cytotoxicity (cell proliferation) [4]	prevention of hydrogen peroxide-induced HepG2 cytotoxicity (cell proliferation) [4]	iron (II) chelation ([1]; FIG. 2, methanesulfonate)	toxicity toward HepG2 cells (comparison) [3]	concentration above which cell proliferation was inhibited ([3]; FIG. 8A)
CS(=O)(=O)[O-].O=C(/C=C/c1ccc(O)c(O)c1)NCCCCCC[P+](c1ccccc1)(c1ccccc1)c1ccccc1 [AntiOxCIN2, (E)-(6-(3-(3,4-dihydroxyphenyl)prop-2-enamido)hexyl)triphenylphosphonium methanesulfonate]	higher iron chelation activity than caffeic acid itself	–	–	–	–	–	–	–
CS(=O)(=O)[O-].O=C(/C=C/c1cc(O)c(O)c(O)c1)NCCCCCC[P+](c1ccccc1)(c1ccccc1)c1ccccc1 [AntiOxCIN4, (E)-(6-(3-(3,4,5-trihydroxyphenyl)prop-2-enamido)hexyl)triphenylphosphonium methanesulfonate]	–	did not induce nuclear morphological changes neither mitochondrial depolarization; also recorded: did not disturb the normal nuclear morphology and mitochondrial polarization	higher than 100 μM	significantly prevented	significantly prevented	higher iron chelation activity than caffeic acid itself; also recorded: remarkable iron-chelation property	–	–
CS(=O)(=O)[O-].O=C(/C=C/c1ccc(O)c(O)c1)NCCCCCCCCCC[P+](c1ccccc1)(c1ccccc1)c1ccccc1 [AntiOxCIN6, (E)-(10-(3-(3,4-dihydroxyphenyl)acrylamido)decyl)triphenylphosphonium methanesulfonate]	–	did not induce nuclear morphological changes neither mitochondrial depolarization; also recorded: did not disturb the normal nuclear morphology and mitochondrial polarization	–	significantly prevented	significantly prevented	–	higher toxicity than AntiOxCIN4	higher than 2.5 μM
O=C(O)/C=C/c1ccc(O)c(O)c1 [Caffeic acid, caffeic acid, reference compound]	able to chelate ferrous iron alike EDTA	–	–	–	–	–	–	–
